Columns and labels:
[1] = Solubility evaluation of diols containing an acid group in NMP or DPGDME; assay type: physicochemical; for Solubility, DMBA in DPGDGME (75° C.): key: An entry of 'Yes' indicates completely soluble; an entry of 'No' means not fully soluble; for Solubility, DMBA in NMP (25° C.): key: An entry of 'Yes' indicates completely soluble; an entry of 'No' means not fully soluble; for Solubility, DMPA in DPDGME (95° C.): key: An entry of 'Yes' indicates completely soluble; an entry of 'No' means not fully soluble; for Solubility, DMPA in NMP (25° C.): key: An entry of 'Yes' indicates completely soluble; an entry of 'No' means not fully soluble
Procedure: The solubility of certain diols containing an acid group (2,2-dimethylolpropionic acid (DMPA) and 2,2-dimethylolbutanoic acid (DMBA)) in dipropylene glycol dimethyl ether (DPGDME) and in N-methyl-2-pyrrolidone (NMP) are evaluated at different temperatures. The DPGDME used is PROGLYDE™ DMM (The Dow Chemical Company). The following concentrations with corresponding amounts of DMPA or DMBA and of solvent (DPGDME or NMP) are evaluated:
Using a 30 milliliter glass vial with a 24-mm black phenolic screw cap with poly seal liner from Fisher, the […] (DMBA or DMPA) is added at 5 wt. %, 10 wt. %, 15 wt. %, 20 wt. %, and 25 wt. % in the solvent (NMP or DPGDME) as specified in Table 1. Samples are heated on a high throughput heating/mixing station from 25° C. to 100° C. in 10° C. increments while mixing at 500 rpm with a magnetic stir bar. Samples are then removed an image is taken to record solubility.

[2] = animal testing; cited from earlier work

Compound: CCC(CO)(CO)C(=O)O [DMBA, 2,2-dimethylolbutanoic acid]
- Solubility, DMBA in DPGDGME (75° C.) ([1]; 5 weight % in DPGDGME, 75° C.): Yes
- Solubility, DMBA in NMP (25° C.) ([1]; 5 weight % in NMP): Yes
- Solubility, DMBA in DPGDGME (75° C.) ([1]; 10 weight % in DPGDGME, 75° C.): Yes
- Solubility, DMBA in NMP (25° C.) ([1]; 10 weight % in NMP): Yes
- Solubility, DMBA in DPGDGME (75° C.) ([1]; 15 weight % in DPGDGME, 75° C.): Yes
- Solubility, DMBA in NMP (25° C.) ([1]; 15 weight % in NMP): Yes
- Solubility, DMBA in DPGDGME (75° C.) ([1]; 20 weight % in DPGDGME, 75° C.): Yes
- Solubility, DMBA in NMP (25° C.) ([1]; 20 weight % in NMP): Yes
- Solubility, DMBA in DPGDGME (75° C.) ([1]; 25 weight % in DPGDGME, 75° C.): Yes
- Solubility, DMBA in NMP (25° C.) ([1]; 25 weight % in NMP): Yes
- Solubility in DPGDME ([1]; 75° C.): fully dissolve
- Solubility in both solvents tested (NMP and DPGDME) ([1]; all concentrations up to 25 weight %, varying temperatures): soluble

Compound: CN1CCCC1=O [NMP, N-methyl-2-pyrrolidone]
- Reproductive toxicity [2]: shows reproductive toxicity

Compound: CC(CO)(CO)C(=O)O [DMPA, 2,2-dimethylolpropionic acid]
- Solubility, DMPA in DPDGME (95° C.) ([1]; 5 weight % in DPDGME, 95° C.): No
- Solubility, DMPA in NMP (25° C.) ([1]; 5 weight % in NMP): Yes
- Solubility in DPGDGME ([1]; 5 weight %, 95° C.): not fully soluble
- Solubility, DMPA in DPDGME (95° C.) ([1]; 10 weight % in DPDGME, 95° C.): No
- Solubility, DMPA in NMP (25° C.) ([1]; 10 weight % in NMP): Yes
- Solubility, DMPA in DPDGME (95° C.) ([1]; 15 weight % in DPDGME, 95° C.): No
- Solubility, DMPA in NMP (25° C.) ([1]; 15 weight % in NMP): Yes
- Solubility, DMPA in DPDGME (95° C.) ([1]; 20 weight % in DPDGME, 95° C.): No
- Solubility, DMPA in NMP (25° C.) ([1]; 20 weight % in NMP): Yes
- Solubility, DMPA in DPDGME (95° C.) ([1]; 25 weight % in DPDGME, 95° C.): No
- Solubility, DMPA in NMP (25° C.) ([1]; 25 weight % in NMP): Yes
- Solubility in DPGDME (overall) ([1]; in DPGDME): poor
- Solubility in NMP ([1]; room temperature (25° C.), all concentrations up to 25 weight %, upon mixing in NMP): completely soluble

— patent US20240026062A1, “WATER-BASED POLYURETHANE DISPERSIONS AND THEIR PREPARATION” (Dow Global Technologies LLC, priority 2020, published 2024)
